Measurements reported in PubChem BioAssay (NCI).
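Where inhibition never reached the appropriate level, the endpoint shown equals the highest concentration tested. Otherwise, values were interpolated linearly from a five-concentration, 48-hour dose response in 96-well plates. The concentration for 50% growth inhibition is given as GI50. TGI is the concentration that stops growth completely.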

Tests used:
Assay in all cases: NCI tumour cell line growth inhibition, 48 h
[1] = test system: NCI-H460 lung
[2] = test system: SK-OV-3 ovarian
[3] = test system: RXF 393 renal
[4] = test system: DU-145 prostate
[5] = test system: U251 CNS
[6] = test system: NCI-H522 lung
[7] = test system: SW-620 colon
[8] = test system: PC-3 prostate
[9] = test system: SK-MEL-2 melanoma
[10] = test system: HL-60(TB) leukemia
[11] = test system: COLO 205 colon
[12] = test system: HCT-15 colon
[13] = test system: SNB-19 CNS
[14] = test system: SR leukemia
[15] = test system: SF-539 CNS
[16] = test system: M14 melanoma
[17] = test system: UACC-62 melanoma
[18] = test system: SF-268 CNS
[19] = test system: OVCAR-8 ovarian
[20] = test system: SN12C renal
[21] = test system: IGROV1 ovarian
[22] = test system: MALME-3M melanoma
[23] = test system: UACC-257 melanoma
[24] = test system: MOLT-4 leukemia
[25] = test system: HT29 colon
[26] = test system: HCC-2998 colon
[27] = test system: A549 NSCLC
[28] = test system: MDA-MB-468 breast
[29] = test system: EKVX NSCLC
[30] = test system: HS 578T breast
[31] = test system: CAKI-1 renal
[32] = test system: NCI-H23 lung
[33] = test system: OVCAR-4 ovarian
[34] = test system: SF-295 CNS
[35] = test system: HOP-92 NSCLC
[36] = test system: OVCAR-5 ovarian
[37] = test system: MCF7 breast
[38] = test system: MDA-MB-435
[39] = test system: ACHN renal
[40] = test system: TK-10 renal
[41] = test system: SK-MEL-5 melanoma
[42] = test system: LOX IMVI melanoma
[43] = test system: OVCAR-3 ovarian
[44] = test system: MDA-MB-231 breast
[45] = test system: T-47D breast
[46] = test system: UO-31 renal
[47] = test system: A498 renal
[48] = test system: RPMI-8226 leukemia
[49] = test system: 786-0 renal
[50] = test system: KM12 colon
[51] = test system: BT-549 breast
[52] = test system: HOP-62 NSCLC
[53] = test system: CCRF-CEM leukemia
[54] = test system: SK-MEL-28 melanoma
[55] = test system: NCI-H226 lung
[56] = test system: K-562 leukemia
[57] = test system: HCT-116 colon

COc1ccc(-c2cc(-c3cc(OC)c(OC)c(OC)c3)[nH]c(=O)c2C#N)cc1
GI50 [1]: 12.9 µM | TGI [1]: 44.3 µM | GI50 [2]: 7.52 µM | TGI [2]: 26.7 µM | GI50 [3]: 2350 nM | TGI [3]: 12.1 µM | GI50 [4]: 88.1 µM | TGI [4]: > 100 µM | GI50 [5]: 4.48 µM | TGI [5]: 22.4 µM | GI50 [6]: 20.3 µM | TGI [6]: 64.4 µM | GI50 [7]: 71.8 µM | TGI [7]: > 100 µM | GI50 [8]: 25.5 µM | TGI [8]: > 100 µM | GI50 [9]: 14.6 µM | TGI [9]: 30.8 µM | GI50 [10]: > 100 µM | TGI [10]: > 100 µM | GI50 [11]: > 100 µM | TGI [11]: > 100 µM | GI50 [12]: 96.3 µM | TGI [12]: > 100 µM | GI50 [13]: 6.4 µM | TGI [13]: 35.8 µM | GI50 [14]: > 100 µM | TGI [14]: > 100 µM | GI50 [15]: 5.79 µM | TGI [15]: 20.2 µM | GI50 [16]: > 100 µM | TGI [16]: > 100 µM | GI50 [17]: 27.2 µM | TGI [17]: > 100 µM | GI50 [18]: 16.9 µM | TGI [18]: 79.5 µM | GI50 [19]: 4.3 µM | TGI [19]: 22.4 µM | GI50 [20]: 3.8 µM | TGI [20]: 61.6 µM | GI50 [21]: 15.1 µM | TGI [21]: 76.3 µM | GI50 [22]: 19.3 µM | TGI [22]: 97.3 µM | GI50 [23]: 76.6 µM | TGI [23]: > 100 µM | GI50 [24]: > 100 µM | TGI [24]: > 100 µM | GI50 [25]: 71.6 µM | TGI [25]: > 100 µM | GI50 [26]: > 100 µM | TGI [26]: > 100 µM | GI50 [27]: 14 µM | TGI [27]: > 100 µM | GI50 [28]: 17.8 µM | TGI [28]: 47 µM | GI50 [29]: 21.3 µM | TGI [29]: > 100 µM | GI50 [30]: 5.67 µM | TGI [30]: 56.8 µM | GI50 [31]: 6.96 µM | TGI [31]: 31.4 µM | GI50 [32]: 18.9 µM | TGI [32]: 62.1 µM | GI50 [33]: 4.24 µM | TGI [33]: 29.8 µM | GI50 [34]: 12.3 µM | TGI [34]: 32.3 µM | GI50 [35]: 1970 nM | TGI [35]: 8.17 µM | GI50 [36]: > 100 µM | TGI [36]: > 100 µM | GI50 [37]: 23.8 µM | TGI [37]: > 100 µM | GI50 [38]: > 100 µM | TGI [38]: > 100 µM | GI50 [39]: 9.76 µM | TGI [39]: 32.2 µM | GI50 [40]: 19.8 µM | TGI [40]: > 100 µM | GI50 [41]: 17.1 µM | TGI [41]: 64.7 µM | GI50 [42]: 14 µM | TGI [42]: 47.4 µM | GI50 [43]: 62.7 µM | TGI [43]: > 100 µM | GI50 [44]: 3.76 µM | TGI [44]: 18.4 µM | GI50 [45]: 7.72 µM | TGI [45]: > 100 µM | GI50 [46]: 3.54 µM | TGI [46]: 25.2 µM | GI50 [47]: 3.81 µM | TGI [47]: 23.4 µM | GI50 [48]: > 100 µM | TGI [48]: > 100 µM | GI50 [49]: 4.88 µM | TGI [49]: 20.1 µM | GI50 [50]: > 100 µM | TGI [50]: > 100 µM | GI50 [51]: 16.5 µM | TGI [51]: 48 µM | GI50 [52]: 7.08 µM | TGI [52]: 24.1 µM | GI50 [53]: > 100 µM | TGI [53]: > 100 µM | GI50 [54]: 46 µM | TGI [54]: > 100 µM | GI50 [55]: 5.6 µM | TGI [55]: 24.9 µM | GI50 [56]: > 100 µM | TGI [56]: > 100 µM | GI50 [57]: 55.9 µM | TGI [57]: > 100 µM
